Drawing on publication PMC2965769 (PLoS Pathogens, 2010), this text covers IC50 for two substances.

For the assay, the system named is NiV G/F pseudotyped viruses. The following applies: 24 h.

A word on the IC50: it is the concentration that inhibits the measured activity by half.

*: point of attachment. X2 = CC(C)CCC[C@@H](C)[C@H]1CC[C@H]2[C@@H]3CC=C4C[C@@H](OC(=O)CCOCCOCCOCCOCCNC(=O)C*)CC[C@]4(C)[C@H]3CC[C@]12C; X1 = CC(C)CCC[C@@H](C)[C@H]1CC[C@H]2[C@@H]3CC=C4C[C@@H](OC(=O)C*)CC[C@]4(C)[C@H]3CC[C@]12C

“Ac-VALDPIDISIVLNKAKSDLEESKEWIRRSNQKLDSIGSGSGC(X1)-NH2 (N-terminus and C-terminus assumed) [V-chol]” gave an IC50 of around 0.02 nM.

“Ac-VALDPIDISIVLNKAKSDLEESKEWIRRSNQKLDSIGSGSGC(X2)-NH2 (N-terminus and C-terminus assumed) [V-PEG4-chol]” registered a half-maximal inhibitory concentration (IC50) of around 0.02 nM.
